Earlier results, collected in US5370873A, “Therapeutic compounds derived from the neem tree” (priority 1992, dated 1994).
Read-outs that look alike come from different tables or passages of the source.

Assays:
[1] = test system: murine P-388 lymphocytic leukemia cell line
[2] = test system: insect
[3] = test system: Plasmodium falciparum
[4] = in vivo
[5] = not given; remark: listed apart in the source

1,2-diapoxyazadiradione
ED50, murine P-388 lymphocytic leukemia cell line [1]: 8.5 mg

7-acetyl neotrichilenone
ED50, murine P-388 lymphocytic leukemia cell line [1]: 10 mg

C/C=C(\C)C(=O)O[C@H]1C[C@@H](OC(C)=O)[C@@]2(C(=O)OC)CO[C@H]3[C@@H](O)[C@@](C)([C@]45O[C@@]4(C)[C@H]4C[C@@H]5O[C@@H]5OC=C[C@@]54O)[C@H]4[C@]1(CO[C@]4(O)C(=O)OC)[C@@H]32 [azadiractin]
insect feeding repellency [2]: very potent insect feeding repellents

CC(=O)O[C@@H]1C[C@H]2C(C)(C)C(=O)C=C[C@]2(C)[C@H]2CC[C@@]3(C)[C@H](c4ccoc4)OC(=O)[C@H]4O[C@]43[C@@]21C [gedunin]
inhibition of development of Plasmodium falciparum in vitro [3]: inhibit the development of the human malarial parasite Plasmodium falciparum in vitro

Neem oil
local or systemic side effects in human subjects [4]: no local or systemic side effects
local or systemic side effects in human subjects ([4]; po): no local or systemic side effects

nimbidin
systemic toxicity in rats: failed to demonstrate any systemic toxicity
systemic toxicity in dogs [5]: failed to demonstrate any systemic toxicity
